System: mouse colitis model induced by transfer of IL-10−/− cells
Test: Mouse colitis model induced by transfer of IL-10−/− cells, intestinal tract weight
Type: in vivo
Details: oral, three times per day for 14 days
Description: As a method for preparing mouse colitis model induced by transfer of IL-10^−/− cells, used was the method described in J Crohns Colitis. 2013 December; 7 (11): e533-42.
Each test substance was suspended in a 0.5% methylcellulose aqueous solution to be contained at 30, 10, 3, or 1 mg/mL, and was orally administered with Terumo syringe (1 mL) and a metal probe for mouse in a dose of 10 ml per kilo gram of animal body weight. The administration was performed three times per day for 14 days.
An intestinal tract weight as a medicinal effect indicator was measured by the following method. On the final necropsy day, the large intestine from the anus to just before the cecum was taken out, the content in the intestinal tract was washed away with physiological saline, the moisture was lightly removed, and the weight of the large intestine was measured. The inhibitory rate (%) in each of compound administered groups was figured out based on the average value of intestinal tract weights per group under the setting in which a colitis onset group was scored at 0% and a normal group was scored at 100%.

SMILES	Inhibitory Rate (%) (intestinal tract weight) (Dose 30 mg/kg)	Inhibitory Rate (%) (intestinal tract weight) (Dose 300 mg/kg)	Inhibitory Rate (%) (intestinal tract weight) (Dose 10 mg/kg)	Inhibitory Rate (%) (intestinal tract weight) (Dose 100 mg/kg)
Cc1cn(C)c(=O)n(-c2ccc(C[C@H](NC(=O)c3cc(F)c(NS(=O)(=O)c4ccc(NC(=O)C(C)(C)C)cc4)cc3F)C(=O)OCC(C)C)cn2)c1=O [Compound P73]	21.9	38.8		
CC(C)COC(=O)[C@H](Cc1ccc(-n2c(=O)ccn(C)c2=O)nc1)NC(=O)c1cc(F)c(NS(=O)(=O)c2ccc(NC(=O)C(C)(C)C)cc2)cc1F [Compound P74]	12.5	47.1		
CCOC(=O)[C@H](Cc1ccc(-n2c(=O)cc(C)n(C)c2=O)nc1)NC(=O)c1cc(F)c(NS(=O)(=O)c2ccc(NC(=O)C(C)(C)C)cc2)cc1F [Compound P52]	39.9	42.8		
CC(C)OC(=O)[C@H](Cc1ccc(-n2c(=O)ccn(C)c2=O)nc1)NC(=O)c1cc(F)c(NS(=O)(=O)c2ccc(NC(=O)C(C)(C)C)cc2)cc1F [Compound P59]	46.7	58.6		
Cc1c(C)n(C)c(=O)n(-c2ccc(C[C@H](NC(=O)c3cc(F)c(NS(=O)(=O)c4ccc(NC(=O)C(C)(C)C)cc4)cc3F)C(=O)OC(C)C)cc2)c1=O [Compound P2]			24.6	52.2
CCOC(=O)[C@H](Cc1ccc(-n2c(=O)c(C)cn(C)c2=O)nc1)NC(=O)c1cc(F)c(NS(=O)(=O)c2ccc(NC(=O)C(C)(C)C)cc2)cc1F [Compound P69]	36.1	51.1		
Cc1cc(=O)n(-c2ccc(C[C@H](NC(=O)c3cc(F)c(NS(=O)(=O)c4ccc(NC(=O)C(C)(C)C)cc4)cc3F)C(=O)OCC(C)C)cn2)c(=O)n1C [Compound P97]	17.5	43.6		

Reference: patent publication US10562898B2, “Substituted benzenesulfonamides as inhibitors of alpha-4 beta-7 integrin activity” (EA PHARMA CO., LTD., priority 2016, dated 2020)
